Read-outs that look alike come from different tables or passages of the source.

The nature of the data set: Pharmacokinetics in adult Sprague-Dawley rats. Type of data set: in vivo. The following applies: average n = 4; for Cmax / AUC / AUC(0-t): rat blood. As for the experimental part:
All animal studies were approved by the Montreal Heart Institute (MHI) Animal Care and Ethical committee. Pharmacokinetic experiments were performed in collaboration at the Montreal Heart Institute in collaboration with the Platform of Biopharmacy at Université de Montréal. Briefly, Compound 2 (formulation PG:H20; 50:50 stock solution 2.5 mg/ml) was administered intravenously (iv) at 5 mg/kg (n=4) or by oral gavage (PO) at 25 mg/kg (n=4) in adult Sprague-Dawley male rats (˜200 g). […] Samples were mixed and centrifuged at 15000 rpm for 5 min. 50 μL of supernatant were transferred to an HPLC plate, and 100 μL of water+0.1% formic acid were added. […] Samples were analyzed in MRM mode using LC-MS/MS. The calibration curve was plotted using the ratio of the analyte peak area and the IS peak area, using a quadratic regression. Pharmacokinetic (PK) parameters were calculated using Kinetica Software for PK/PD Data Analysis, Simulation and Reporting (Thermo Fisher), based on the blood concentrations of each animal. Results are described in Table 4 and illustrated in FIG. 20.

Setting [1] is: male, Sprague-Dawley, rat, whole blood, PO 25 mg/kg.
Where [2] appears, read: male, Sprague-Dawley, rat, whole blood, iv 5 mg/kg.
Setting [3] is: male, Sprague-Dawley, whole blood, PO 25 mg/kg.
The mark [4] stands for this setting: male, Sprague-Dawley, whole blood, iv 5 mg/kg.

Where the note is “PO 25 mg/kg”, `O=C(NO)c1ncc(COc2ccc(F)cc2)c(CO)c1O` [Compound 2, 5-(4-fluoro-phenoxymethyl)-3-hydroxy-4-hydroxymethyl-pyridine-2-carboxylic acid hydroxyamide] showed a Lz of 0.24 h⁻¹, a Vss of 2.43 L, a clearance of 13.44 mL/min and a thalf of 2.97 h. Further, where the note is “PO 25 mg/kg”, the Cmax worked out at 7.09 μMolar. For the setting “iv 5 mg/kg”, this molecule had a Lz of 0.12 h⁻¹, a thalf of 6.60 h and a Cmax of 81.12 μMolar. In addition, for the setting “male, Sprague-Dawley, rat, whole blood, PO 25 mg/kg vs iv 5 mg/kg”, the bioavailability (usually the share of a dose that reaches the circulation, judged against a reference dose that is usually intravenous) came out at 15%. Moreover, under setting [1], the MRT – broadly, the average time that molecules of a dose stay in the body – is 3.44 h and the Tmax (in general, the time from dosing to the highest level) was 19.8 min. Besides, under setting [2], the MRT was found to be 0.55 h and the Tmax worked out at 4.8 min. Further, the clearance (male, Sprague-Dawley, rat, whole blood, iv 5 mg/kg, read-out: Clearance) was 2.2 mL/min. Further, the Vd (male, Sprague-Dawley, rat, whole blood, iv 5 mg/kg, read-out: Vss) amounted to 0.08 L. Further, under setting [3], the AUC (commonly concentration integrated over time) was 24.3 µM·h and the AUC(0-t) (commonly exposure summed from dosing to a finite time, without extrapolation to infinity) was found to be 24.2 µM·h. Under setting [4], this molecule gave an AUC of 31.9 µM·h and an AUC(0-t) of 31.8 µM·h.

Values taken from patent US11400082B2, “Methods of treating elevated plasma cholesterol” (Montréal Heart Institute, priority 2017, dated 2022).
